Measurements: patent publication US20130217702A1 (Richter Gedeon Nyrt., priority 2010, published 2013)

Tests used:
[1] = molecular target: T1, recombinant human B1 receptors (Homo sapiens, UniProt P46663); assay: Functional assay: antagonist potency by cytosolic calcium measurement (plate reader fluorimeter) in CHO-B1 cells, agonist LysDABK; format: cell-based; settings: CHO-B1 cells, inhibition of LysDABK (EC80)-evoked [Ca2+]i elevation; read-out: B1 func.
T1 construct: host or cells: CHO (CHO-B1)
T1 sequence (P46663 1-353): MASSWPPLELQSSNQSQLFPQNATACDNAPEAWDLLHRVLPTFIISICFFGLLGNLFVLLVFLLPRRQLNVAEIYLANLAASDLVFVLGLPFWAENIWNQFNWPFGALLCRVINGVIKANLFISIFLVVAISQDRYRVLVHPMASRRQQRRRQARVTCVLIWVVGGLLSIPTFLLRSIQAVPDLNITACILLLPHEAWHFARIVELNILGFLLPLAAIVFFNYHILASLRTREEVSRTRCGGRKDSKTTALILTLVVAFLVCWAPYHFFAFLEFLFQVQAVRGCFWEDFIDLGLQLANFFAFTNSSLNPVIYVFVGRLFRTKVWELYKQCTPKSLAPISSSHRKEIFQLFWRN
Procedure, shortened: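 IC50 is the concentration giving half-maximal inhibition of the LysDABK (EC80) calcium response, fitted from at least three experiments. CHO cells stably expressing human B1 were dye-loaded, exposed to compound for 20-25 min, then read by fluo-4 fluorescence (ΔF/F) at 37 °C.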

[2] = molecular target: T2, human recombinant bradykinin B1 receptor (Homo sapiens, UniProt P46663); assay: Human recombinant bradykinin B1 receptor competitive radioligand binding; settings: hB1 expressed in CHO cells, [3H]-[Des-Arg10] Kallidin radioligand; read-out: B1 binding
T2 construct: host or cells: CHO cells, clone hB1-A5
T2 sequence (P46663 1-353): T1 sequence (P46663 1-353)
Procedure, shortened: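 Competition radioligand binding on CHO-expressed hB1 membranes, using [3,4-prolyl-3,4-^3H(N)]-[Des-Arg^10] Kallidin as tracer, 15 min at 25° C. Excess Lys-des-Arg^9-Bradykinin (10 μM) set nonspecific binding. Sigmoidal fits of at least seven concentrations gave IC50, converted to Ki via Cheng-Prusoff; KD from Scatchard.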

| SMILES | IC50 [1] [nM] | Ki [2] [nM] |
| --- | --- | --- |
| Cc1nc(-c2c(Cl)c3ccccc3n2-c2ccc(CNC(=O)C3(NC(=O)c4cc(F)cc(C(F)(F)F)c4)CC3)cc2)no1 [Example 94, N-(1-{4-[3-Chloro-2-(5-methyl-[1,2,4]oxadiazol-3-yl)-indol-1-yl]-benzylcarbamoyl}-cyclopropyl)-3-fluoro-5-trifluoromethyl-benzamide] | < 20 | < 20 |
| Cc1nc(-c2c(Cl)c3ccccc3n2-c2ccc(CNC(=O)C3(NC(=O)c4cncc(C(F)(F)F)c4)CC3)c(F)c2)no1 [Example 111, N-(1-{4-[3-Chloro-2-(5-methyl-[1,2,4]oxadiazol-3-yl)-indol-1-yl]-2-fluoro-benzylcarbamoyl}-cyclopropyl)-5-trifluoromethyl-nicotinamide] | < 20 | < 20 |
| Cc1nc(-c2cc3cc(F)ccc3n2-c2ccc(CNC(=O)C3(NC(=O)c4cncc(C(F)(F)F)c4)CC3)c(F)c2)no1 [Example 132, N-(1-{2-Fluoro-4-[5-fluoro-2-(5-methyl-[1,2,4]oxadiazol-3-yl)-indol-1-yl]-benzylcarbamoyl}-cyclopropyl)-5-trifluoromethyl-nicotinamide] | < 20 | < 20 |
| COc1cc(C(=O)NC2(C(=O)NCc3ccc(-n4c(C(=O)N(C)C)c(Cl)c5ccccc54)cc3)CC2)on1 [Example 35, 3-Chloro-1-{4-[({1-[(3-methoxy-isoxazole-5-carbonyl)-amino]-cyclopropane-carbonyl}-amino)-methyl]-phenyl}-1H-indole-2-carboxylic acid dimethylamide] | 20 to 100 | < 20 |
| COc1ccc2c(c1)c(Cl)c(-c1noc(C)n1)n2-c1ccc(CNC(=O)C2(NC(=O)c3cc(OC)no3)CC2)cc1 [Example 64, 3-Methoxy-isoxazole-5-carboxylic acid (1-{4-[3-chloro-5-methoxy-2-(5-methyl-[1,2,4]oxadiazol-3-yl)-indol-1-yl]-benzylcarbamoyl}-cyclopropyl)-amide] | < 20 | < 20 |
| Cc1nnc(-c2c(Cl)c3ccccc3n2-c2ccc(CNC(=O)C3(NC(=O)c4cnc5ccccc5c4)CC3)cc2)o1 [Example 182, Quinoline-3-carboxylic acid (1-{4-[3-chloro-2-(5-methyl-[1,3,4]oxadiazol-2-yl)-indol-1-yl]-benzylcarbamoyl}-cyclopropyl)-amide] | < 20 | < 20 |
| Cc1noc(-c2c(Cl)c3ccccc3n2-c2ccc(CNC(=O)C3(NC(=O)CC(F)(F)F)CC3)cc2)n1 [Example 112, 1-(3,3,3-Trifluoro-propionylamino)-cyclopropanecarboxylic acid 4-[3-chloro-2-(3-methyl-[1,2,4]oxadiazol-5-yl)-indol-1-yl]-benzylamide] | < 20 | < 20 |
| Cc1nc(-c2c(Cl)c3ccccc3n2-c2ccc(CNC(=O)C3(NC(=O)c4ccno4)CC3)cc2)no1 [Example 134, Isoxazole-5-carboxylic acid (1-{4-[3-chloro-2-(5-methyl-[1,2,4]oxadiazol-3-yl)-indol-1-yl]-benzylcarbamoyl}-cyclopropyl)-amide] | < 20 | < 20 |
| Cc1nc(-c2c(Cl)c3ccccc3n2-c2ccc(CNC(=O)C3(NC(=O)C4CNC(=O)N4)CC3)cc2)no1 (stereo not drawn) [Example 122, 2-Oxo-imidazolidine-4-carboxylic acid (1-{4-[3-chloro-2-(5-methyl-[1,2,4]oxadiazol-3-yl)-indol-1-yl]-benzylcarbamoyl}-cyclopropyl)-amide] | 20 to 100 | 20 to 100 |
| CCCc1cc(C(=O)NC2(C(=O)NCc3ccc(-n4c(-c5noc(C)n5)c(Cl)c5ccccc54)cc3)CC2)on1 [Example 42, 3-Propyl-isoxazole-5-carboxylic acid (1-{4-[3-chloro-2-(5-methyl-[1,2,4]oxadiazol-3-yl)-indol-1-yl]-benzylcarbamoyl}-cyclopropyl)-amide] | < 20 | < 20 |
| Cc1nnc(-c2c(Cl)c3ccccc3n2-c2ccc(CNC(=O)C3(NC(=O)C(F)(F)F)CC3)cc2)o1 [Example 6, 1-(2,2,2-Trifluoro-acetylamino)-cyclopropanecarboxylic acid 4-[3-chloro-2-(5-methyl-[1,3,4]oxadiazol-2-yl)-indol-1-yl]-benzylamide] | 20 to 100 | 20 to 100 |
| COc1cc(C(=O)NC2(C(=O)NCc3ccc(-n4c(-c5cnco5)c(Cl)c5ccccc54)cc3)CC2)on1 [Example 16, 3-Methoxy-isoxazole-5-carboxylic acid (1-{4-[3-chloro-2-(1,3-oxazol-5-yl)-indol-1-yl]-benzylcarbamoyl}-cyclopropyl)-amide] | < 20 | < 20 |
| Cc1nc(-c2c(Cl)c3ccccc3n2-c2ccc(CNC(=O)C3(NC(=O)C4(C#N)CC4)CC3)cc2)no1 [Example 142, 1-Cyano-cyclopropanecarboxylic acid (1-{4-[3-chloro-2-(5-methyl-[1,2,4]oxadiazol-3-yl)-indol-1-yl]-benzylcarbamoyl}-cyclopropyl)-amide] | 20 to 100 | < 20 |
| COc1cc(C(=O)NC2(C(=O)NCc3ccc(-n4c(-c5nnn(C)n5)c(Cl)c5cc(F)ccc54)cn3)CC2)on1 [Example 59, 3-Methoxy-isoxazole-5-carboxylic acid [1-({5-[3-chloro-5-fluoro-2-(2-methyl-2H-tetrazol-5-yl)-indol-1-yl]-pyridin-2-ylmethyl}-carbamoyl)-cyclopropyl]-amide] | < 20 | < 20 |
| Cc1nc(-c2cc3cc(F)ccc3n2-c2ccc(CNC(=O)C3(NC(=O)c4cccnc4F)CC3)cc2)no1 [Example 120, 2-Fluoro-N-(1-{4-[5-fluoro-2-(5-methyl-[1,2,4]oxadiazol-3-yl)-indol-1-yl]-benzylcarbamoyl}-cyclopropyl)-nicotinamide] | < 20 | < 20 |
| Cc1nc(-c2c(Cl)c3ccccc3n2-c2ccc([C@@H](C)NC(=O)C3(NC(=O)C(F)(F)F)CC3)cc2)no1 [Example 40, (R)-1-(2,2,2-Trifluoro-acetylamino)-cyclopropanecarboxylic acid (1-{4-[3-chloro-2-(5-methyl-[1,2,4]oxadiazol-3-yl)-indol-1-yl]-phenyl}-ethyl)-amide] | < 20 | < 20 |
| Cc1nc(-c2c(Cl)c3ccccc3n2-c2ccc(CNC(=O)C3(NC(=O)C=Cc4ccco4)CC3)cc2)no1 [Example 171, 1-(3-Furan-2-yl-acryloylamino)-cyclopropanecarboxylic acid 4-[3-chloro-2-(5-methyl-[1,2,4]oxadiazol-3-yl)-indol-1-yl]-benzylamide] | 20 to 100 | < 20 |
| Cn1nnc(-c2c(Cl)c3cc(F)ccc3n2-c2ccc(CNC(=O)C3(NC(=O)C(F)(F)F)CC3)c(F)c2)n1 [Example 19] | < 20 | < 20 |
| Cc1nc(-c2cc3ccccc3n2-c2ccc(CNC(=O)C3(NC(=O)c4cncc(C(F)(F)F)c4)CC3)cc2)no1 [Example 82, N-(1-{4-[2-(5-Methyl-[1,2,4]oxadiazol-3-yl)-indol-1-yl]-benzylcarbamoyl}-cyclopropyl)-5-trifluoromethyl-nicotinamide] | < 20 | < 20 |
| COc1cc(C(=O)NC2(C(=O)NCc3ccc(-n4c(-c5nnn(C)n5)c(Cl)c5cc(F)ccc54)cc3)CC2)on1 [Example 13, 3-Methoxy-isoxazole-5-carboxylic acid (1-{4-[3-chloro-5-fluoro-2-(2-methyl-2H-tetrazol-5-yl)-indol-1-yl]-benzylcarbamoyl}-cyclopropyl)-amide] | < 20 | < 20 |
| Cn1nnc(-c2c(Cl)c3cc(Cl)ccc3n2-c2ccc(CNC(=O)C3(NC(=O)C(F)(F)F)CC3)c(F)c2)n1 [Example 22, 1-(2,2,2-Trifluoro-acetylamino)-cyclopropanecarboxylic acid 4-[3,5-dichloro-2-(2-methyl-2H-tetrazol-5-yl)-indol-1-yl]-2-fluoro-benzylamide] | < 20 | < 20 |
| Cc1nc(-c2c(Cl)c3ccccc3n2-c2ccc(CNC(=O)C3(NC(=O)c4cncnc4)CC3)cc2)no1 [Example 166, Pyrimidine-5-carboxylic acid (1-{4-[3-chloro-2-(5-methyl-[1,2,4]oxadiazol-3-yl)indol-1-yl]-benzylcarbamoyl}-cyclopropyl)-amide] | < 20 | < 20 |
| COc1cccc(C(=O)NC2(C(=O)NCc3ccc(-n4c(-c5noc(C)n5)c(Cl)c5ccccc54)cc3)CC2)c1 [Example 175, N-(1-{4-[3-Chloro-2-(5-methyl-[1,2,4]oxadiazol-3-yl)-indol-1-yl]-benzylcarbamoyl}-cyclopropyl)-3-methoxy-benzamide] | 20 to 100 | < 20 |
| Cc1nc(-c2c(Cl)c3cc(F)ccc3n2-c2ccc(CNC(=O)C3(NC(=O)c4cccnc4F)CC3)cc2)no1 [Example 117, N-(1-{4-[3-Chloro-5-fluoro-2-(5-methyl-[1,2,4]oxadiazol-3-yl)-indol-1-yl]-benzylcarbamoyl}-cyclopropyl)-2-fluoro-nicotinamide] | < 20 | < 20 |
